{"source": "patent US20100144599A1", "about": "“VEGF PATHWAY BLOCKADE” (Bristol-Myers Squibb Company, priority 2007, published 2010)", "key": {"[1]": {"settings": "Bhuyan et al., Cancer Res. 42 (1982); cited from earlier work"}, "Colo205 colon carcinoma": {"test_system": "Colo205 colon carcinoma", "assay": "Tumor inhibition, Colo-205 colon carcinoma xenogeneic s.c. model", "assay_type": "in vivo, Human", "settings": "60 mg/kg, treatment started at average tumor size 200 mm^3, Kaplan Meier (FIG. 3)", "method": "(§1) The anti-tumor effect of Comp-I was compared to bevacizumab treatment in a model of colon (Colo205 colon carcinoma) and brain (U87 glioblastoma) tumors.\nThe anti-tumor effect of Comp-I was also compared to treatment with sunitinib and sorafenib in a Colo205 colon carcinoma model. FIG. 3 depicts a Kaplan Meier Survival analysis on the length of time for individual tumors to reach a given size. […] All three compounds were administered at 60 mg/kg."}, "[2]": {"assay": "Toxicity study in the Colo205 colon carcinoma model", "assay_type": "in vivo", "settings": "sunitinib 60 mg/kg/day, sorafenib 80 mg/kg/day", "method": "An additional study was performed using the Colo205 colon carcinoma model to test the toxicity of sunitinib (60 mg/kg/day), sorafenib (80 mg/kg/day), and Comp-I (30 mg/kg/day) treatment."}, "U87 glioblastoma": {"test_system": "U87 glioblastoma", "assay": "Tumor inhibition, U87 glioblastoma xenograft model", "assay_type": "in vivo, Human", "settings": "nude male mice, 30 mg/kg Comp-I or 5 mg/kg bevacizumab bi-weekly, 20 days (FIG. 2)", "method": "The effect of Comp-I and bevacizumab treatment was assessed in a U87 xenograft model of human glioblastoma (FIG. 2). Briefly, nude male mice, 6-7 weeks of age, were implanted with U87 glioblastoma tumor cells (5×10^6) subcutaneously on the right flank. Tumor growth was monitored 2 times per week using caliper measurement. Drug treatment was initiated after the tumors reached a size of at least 50 mm^3.Tumor growth inhibition over vehicle was greater in Comp-I (56%) as compared to bevacizumab (35%) treatment.\nas §1"}}}
{"molecule": "COc1c(O)c2c(c3cc(C(=O)N4CCc5c4c(O)c(OC)c4[nH]c(C(=O)N6CC7CC78C6=CC(=O)c6[nH]cc(C)c68)cc54)[nH]c13)CCN2C(N)=O", "note": "(stereo not drawn) [CC-1065]", "values": [{"measurement": "potency in vitro relative to commonly used anti-cancer drugs, such as doxorubicin, methotrexate and vincristine", "setting": "[1]", "value": "about 1000 fold"}]}
{"molecule": "CNC(=O)c1cc(Oc2ccc(NC(=O)Nc3ccc(Cl)c(C(F)(F)F)c3)cc2)ccn1", "note": "[sorafenib]", "values": [{"measurement": "tumors remaining under 500 mm^3", "setting": "Colo205 colon carcinoma", "value": "around 60%"}, {"measurement": "mice survived", "setting": "[2]", "value": "14/15"}]}
{"molecule": "CCN(CC)CCNC(=O)c1c(C)[nH]c(/C=C2\\C(=O)Nc3ccc(F)cc32)c1C", "note": "[sunitinib]", "values": [{"measurement": "tumors remaining under 500 mm^3", "setting": "Colo205 colon carcinoma", "value": "around 60%"}, {"measurement": "mice survived", "setting": "[2]", "value": "12/15"}]}
{"molecule": "bevacizumab", "values": [{"measurement": "Tumor growth inhibition over vehicle", "setting": "U87 glioblastoma", "value": 35, "unit": "%"}]}
